Legend:
TPα = biological target: T1, TPα (Homo sapiens, UniProt P21731); assay: IP3 generation, HEK.TPα cells; assay type: cell-based; settings: 1 μM U46619 2 min, washout, restimulation at 60 min
T1 construct: expressed in transfected cells
T1 sequence (P21731 1-343): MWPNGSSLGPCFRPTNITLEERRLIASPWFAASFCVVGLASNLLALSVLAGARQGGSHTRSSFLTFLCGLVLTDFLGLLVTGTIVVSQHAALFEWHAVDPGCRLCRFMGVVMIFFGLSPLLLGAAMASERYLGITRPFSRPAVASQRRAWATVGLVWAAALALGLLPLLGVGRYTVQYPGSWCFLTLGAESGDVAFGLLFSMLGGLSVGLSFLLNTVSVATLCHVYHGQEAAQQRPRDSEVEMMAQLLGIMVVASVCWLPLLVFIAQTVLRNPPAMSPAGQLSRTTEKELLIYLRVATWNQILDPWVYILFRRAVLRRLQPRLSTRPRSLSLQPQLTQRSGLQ
Method: Intracellular IP3 levels were measured as previously described [[33,43]]. Briefly, cells were harvested by scraping, washed twice in ice-cold PBS and resuspended at approximately 2 × 10^6 cells/200 μl in HEPES-buffered saline (HBS; […], 4.7 mM KCl, 2.2 mM CaCl2, 1.2 mM KH2PO4, 11 mM glucose, 15 mM HEPES–NaOH, pH 7.4), 10 mM LiCl (Walsh et al., 2000). […] Thereafter, cells were stimulated with 1 μM U46619 at 37 °C for 2 min. To assess agonist-mediated homologous desensitization, cells (2 × 10^6 cells/200 μl) were stimulated with 1 μM U46619 at 37 °C for 2 min (Primary stimulation); thereafter, cells were collected by centrifugation (900×g, 5 min); were washed once in 200 μl HBS, 10 mM LiCl and finally resuspended in 200 μl HBS, 10 mM LiCl and were left to recover for 60 min; thereafter, cells were re-stimulated with 1 μM U46619 at 37 °C for 2 min (secondary stimulation). All ligands and […] were pre-diluted in HBS such that 50 μl added to 200 μl of cell suspension in HBS gave the desired final concentration. To determine basal IP3 levels, an equivalent volume (50 μl) of the vehicle HBS was added instead of ligand. The level of IP3 produced was quantified by radio competition assay essentially as described. […]

TPβ = biological target: T2, TPβ (Homo sapiens, UniProt P21731); assay: Intracellular calcium mobilization, HEK.TPβ cells; assay type: cell-based
T2 construct: expressed in transfected cells
Method: Measurement of intracellular calcium mobilization ([Ca^2+]i) in FURA2/AM preloaded HEK 293 cell lines (2 × 10^6 cells/dish), each transiently co-transfected with pADVA (10 μg), and pCMV:Gαq (25 μg), was carried out as previously described. To investigate the effect of GRK2/βARK1 on TP-mediated [Ca^2+]i mobilization, HEK.TPα or HEK.TPβ cells (2 × 10^6 cells/dish) were co-transfected with pADVA (10 μg), pCMV:Gαq (25 μg) along with pRK5:βARK1^495–689 (25 μg), encoding a dominant negative form of GRK2/βARK1[39]. Approximately 48 h post-transfection, cells were harvested by scraping, washed twice in ice-cold PBS and resuspended in HBSSHB (modified Ca^2+/Mg^2+-free Hank's buffered salt solution, containing […], pH 7.67, 0.1% bovine serum albumin (BSA)) buffer at 10^7 cells/ml and incubated in the dark with 5 μM FURA2/AM for 45 min at 37 °C. Cells were collected by centrifugation (900×g, 5 min), washed once in an equal volume of HBSSHB, and were finally resuspended in HBSSHB buffer at 10^7 cells/ml and kept at room temperature in the dark for 40 min. For each measurement of [Ca^2+]i mobilization, aliquots of cells were diluted to 0.825 × 10^6 cells/ml in HBSSHB, 1 mM CaCl2 and FURA2 fluorescence was recorded (2 ml aliquots of cells) at 37^ °C with gentle stirring with a Perkin Elmer-Cetus LS50-B spectrofluorometer at excitation wavelengths of 340 nm and 380 nm and emission wavelength of 510 nm, respectively.
Cells were stimulated with the TP agonist U46619 (1 μM) and changes in [Ca^2+]i mobilization were monitored as a function of time. To assess agonist-mediated homologous desensitization, cells (0.825 × 10^6 cells/ml; 2 ml per assay) were stimulated with 1 μM U46619 (Primary stimulation) or, as a control, with the vehicle for 4 min; thereafter, cells were collected by centrifugation (900×g, 5 min); were washed twice in 2 ml HBSSHB, 1 mM CaCl2; and finally resuspended in 2 ml HBSSHB,1 mM CaCl2 and were left to recover over various time intervals (ranging from 0 to 60 min); thereafter, cells re-stimulated with 1 μM U46619 (Secondary stimulation) and changes in [Ca^2+]i mobilization were monitored as a function of time. To assess the role of protein kinase (PK) A, PKC or PKG on U46619-mediated desensitization of TPα signalling, cells were pre-incubated with the PKA inhibitor H-89 (10 μM), the PKC inhibitor GF 109203X (50 nM) or the PKG inhibitor KT 5823 (50 nM), for 15 min and respective kinase inhibitors were maintained throughout the primary/secondary U46619-stimulations and during the washes.
The vehicle had no effect on U46619-mediated [Ca^2+]i mobilization. Calibration of the signal was performed in each sample by adding 0.2% Triton X-100 to obtain the maximal fluorescence ratio (Rmax) and then 1 mM EGTA to obtain the minimal fluorescence ratio (Rmin). The ratio of the fluorescence at 340 nm to that at 380 nm is a measure of [Ca^2+]i, which assumes a Kd of 225 nM Ca^2+ for FURA2/AM. The results presented in the figures are representative data from at least three or four independent experiments and are plotted as changes in Ca^2+i mobilized (Δ[Ca^2+]i (nM)) as a function of time (s) upon ligand stimulation. Changes in [Ca^2+]i mobilization were determined by measuring peak rises in [Ca^2+]i mobilized (Δ[Ca^2+]i) and were calculated as mean changes in Δ[Ca^2+]i ± S.E.M. (nM).

T2 sequence (P21731 1-407 isoform P21731-2): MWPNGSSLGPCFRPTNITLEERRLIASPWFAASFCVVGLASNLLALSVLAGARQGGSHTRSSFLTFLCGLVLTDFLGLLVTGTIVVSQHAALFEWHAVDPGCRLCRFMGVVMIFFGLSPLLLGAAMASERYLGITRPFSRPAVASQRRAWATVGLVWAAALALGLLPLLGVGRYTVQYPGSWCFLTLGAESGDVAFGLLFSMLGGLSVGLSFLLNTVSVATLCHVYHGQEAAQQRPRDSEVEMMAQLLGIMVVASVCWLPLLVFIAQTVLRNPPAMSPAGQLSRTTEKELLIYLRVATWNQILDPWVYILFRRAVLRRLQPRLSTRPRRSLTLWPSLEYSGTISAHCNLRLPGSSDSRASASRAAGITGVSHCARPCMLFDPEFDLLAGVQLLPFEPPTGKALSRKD

- Δ[Ca2+]i, U46619-induced (TPβ; + GRK^DN, primary 1 μM U46619): 195 ± 11 nM
- Δ[Ca2+]i, U46619-induced (TPβ; + GRK^DN, secondary 1 μM U46619 at 15 min): 210 ± 12 nM
- Δ[Ca2+]i, U46619-induced (TPβ; − GRK^DN, primary 1 μM U46619): 180 ± 6.7 nM
- Δ[Ca2+]i, U46619-induced (TPβ; − GRK^DN, secondary 1 μM U46619 at 15 min): 0 nM
Structure (SMILES): CCCCC[C@H](O)/C=C/[C@@H]1[C@@H](C/C=C\CCCC(=O)O)[C@H]2CO[C@@H]1C2 [U46619]
- IP3 generation following secondary restimulation after U46619 pre-incubation (TPα): almost completely inhibited IP3 generation

Reference: PMC2680961, “Homologous desensitization of signalling by the alpha (α) isoform of the human thromboxane A2 receptor: A specific role for nitric oxide signalling” (Biochimica et Biophysica Acta, 2007)
